According to ChEMBL document CHEMBL5523723, “G Protein-Coupled Estrogen Receptor-Mediated Anti-Inflammatory and Mucosal Healing Activity of a Trimethylpyridinol Analogue in Inflammatory Bowel Disease” (J Med Chem, 2024):

Tests used:
CYP2C19 = CYP2C19 (Homo sapiens, UniProt P33261); assay: Inhibition of CYP2C19 in human liver microsomes assessed as remaining activity at 10 uM using 5-mephenytoin as substrate preincubated for 5 mins followed by NADPH generating system addition for 15 mins by LC-MS/MS method relative to control; format: ADME, Microsome; settings: probe 5-mephenytoin, time 20 min, read-out: Activity
[1] = Mean residence time in Sprague-Dawley rat at 1 mg/kg, po by LC-MS analysis; format: ADME, organism-based; settings: in vivo
[2] = Half life in Sprague-Dawley rat at 1 mg/kg, po by LC-MS analysis; format: ADME, organism-based; settings: in vivo
U-937 [3] = assay: Induction of apoptosis in human U-937 cells assessed as viable cells at 5 uM incubated for 24 hrs by Annexin V FITC/PI staining based flow cytometry analysis ( Rvb = 95.2 +/- 0.4%); format: functional; settings: read-out: Activity
HT-29 [4] = assay: Induction of apoptosis in human HT-29 cells assessed as viable cells at 10 uM incubated for 24 hrs by Annexin V FITC/PI staining based flow cytometry analysis ( Rvb = 99 +/- 0.1%); format: functional; settings: read-out: Activity
HT-29 [5] = assay: Induction of apoptosis in human HT-29 cells assessed as viable cells at 5 uM incubated for 24 hrs by Annexin V FITC/PI staining based flow cytometry analysis ( Rvb = 99 +/- 0.1%); format: functional; settings: read-out: Activity
U-937 [6] = assay: Induction of apoptosis in human U-937 cells assessed as viable cells at 1 uM incubated for 24 hrs by Annexin V FITC/PI staining based flow cytometry analysis ( Rvb = 95.2 +/- 0.4%); format: functional; settings: read-out: Activity
[7] = Half life in Sprague-Dawley rat at 5 mg/kg, po by LC-MS analysis; format: ADME, organism-based; settings: in vivo
hERG = hERG (Homo sapiens, UniProt Q12809); assay: Inhibition of hERG expressed in HEK cells assessed as remaining activity at 10 uM by automated patch clamp method relative to control; format: toxicity, cell-based; settings: HEK cells expressing hERG, read-out: Activity
CYP2D6 = CYP2D6 (Homo sapiens, UniProt P10635); assay: Inhibition of CYP2D6 in human liver microsomes assessed as remaining activity at 10 uM using dextromethorphan as substrate preincubated for 5 mins followed by NADPH generating system addition for 15 mins by LC-MS/MS method relative to control; format: ADME, Microsome; settings: probe dextromethorphan, time 20 min, read-out: Activity
[8] = Mean residence time in Sprague-Dawley rat at 5 mg/kg, po by LC-MS analysis; format: ADME, organism-based; settings: in vivo
[9] = Cmax in Sprague-Dawley rat at 1 mg/kg, iv by LC-MS analysis; format: ADME, organism-based; settings: in vivo
[10] = Mean residence time in Sprague-Dawley rat at 1 mg/kg, iv by LC-MS analysis; format: ADME, organism-based; settings: in vivo
[11] = Acute toxicity in ICR mouse assessed as change in histology of liver at 30 to 300 mg/kg, po measured every other day for 14 days by H and E staining based assay; format: organism-based; settings: in vivo, 336 h, dose 30-300 mg/kg, time 14 day

Sequence of CYP2C19 (P33261 whole entry): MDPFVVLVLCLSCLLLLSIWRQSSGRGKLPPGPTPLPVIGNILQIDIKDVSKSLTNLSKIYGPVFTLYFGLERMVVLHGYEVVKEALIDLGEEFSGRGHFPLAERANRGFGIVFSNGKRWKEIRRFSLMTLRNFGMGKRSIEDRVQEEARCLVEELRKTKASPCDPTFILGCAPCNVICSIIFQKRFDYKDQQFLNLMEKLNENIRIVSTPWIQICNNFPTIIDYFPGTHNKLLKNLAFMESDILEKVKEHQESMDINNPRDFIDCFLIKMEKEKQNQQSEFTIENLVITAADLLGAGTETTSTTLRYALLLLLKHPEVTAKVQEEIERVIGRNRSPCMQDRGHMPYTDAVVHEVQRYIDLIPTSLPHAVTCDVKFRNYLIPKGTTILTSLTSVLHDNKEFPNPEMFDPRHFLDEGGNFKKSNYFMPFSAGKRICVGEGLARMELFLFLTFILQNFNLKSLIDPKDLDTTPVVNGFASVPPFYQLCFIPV
Sequence of CYP2D6 (P10635 whole entry): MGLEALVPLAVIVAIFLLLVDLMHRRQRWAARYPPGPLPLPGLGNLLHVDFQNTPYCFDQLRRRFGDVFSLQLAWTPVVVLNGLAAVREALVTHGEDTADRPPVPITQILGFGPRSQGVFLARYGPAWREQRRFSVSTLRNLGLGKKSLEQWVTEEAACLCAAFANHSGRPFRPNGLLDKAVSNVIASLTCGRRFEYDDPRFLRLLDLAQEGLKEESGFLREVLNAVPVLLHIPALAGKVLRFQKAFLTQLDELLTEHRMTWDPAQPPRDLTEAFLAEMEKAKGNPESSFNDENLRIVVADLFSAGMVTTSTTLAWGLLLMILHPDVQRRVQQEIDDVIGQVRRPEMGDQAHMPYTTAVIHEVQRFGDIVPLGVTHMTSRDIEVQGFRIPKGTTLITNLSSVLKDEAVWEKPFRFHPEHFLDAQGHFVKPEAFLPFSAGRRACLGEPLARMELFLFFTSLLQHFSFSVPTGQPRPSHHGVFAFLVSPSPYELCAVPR
Sequence of hERG (Q12809 whole entry): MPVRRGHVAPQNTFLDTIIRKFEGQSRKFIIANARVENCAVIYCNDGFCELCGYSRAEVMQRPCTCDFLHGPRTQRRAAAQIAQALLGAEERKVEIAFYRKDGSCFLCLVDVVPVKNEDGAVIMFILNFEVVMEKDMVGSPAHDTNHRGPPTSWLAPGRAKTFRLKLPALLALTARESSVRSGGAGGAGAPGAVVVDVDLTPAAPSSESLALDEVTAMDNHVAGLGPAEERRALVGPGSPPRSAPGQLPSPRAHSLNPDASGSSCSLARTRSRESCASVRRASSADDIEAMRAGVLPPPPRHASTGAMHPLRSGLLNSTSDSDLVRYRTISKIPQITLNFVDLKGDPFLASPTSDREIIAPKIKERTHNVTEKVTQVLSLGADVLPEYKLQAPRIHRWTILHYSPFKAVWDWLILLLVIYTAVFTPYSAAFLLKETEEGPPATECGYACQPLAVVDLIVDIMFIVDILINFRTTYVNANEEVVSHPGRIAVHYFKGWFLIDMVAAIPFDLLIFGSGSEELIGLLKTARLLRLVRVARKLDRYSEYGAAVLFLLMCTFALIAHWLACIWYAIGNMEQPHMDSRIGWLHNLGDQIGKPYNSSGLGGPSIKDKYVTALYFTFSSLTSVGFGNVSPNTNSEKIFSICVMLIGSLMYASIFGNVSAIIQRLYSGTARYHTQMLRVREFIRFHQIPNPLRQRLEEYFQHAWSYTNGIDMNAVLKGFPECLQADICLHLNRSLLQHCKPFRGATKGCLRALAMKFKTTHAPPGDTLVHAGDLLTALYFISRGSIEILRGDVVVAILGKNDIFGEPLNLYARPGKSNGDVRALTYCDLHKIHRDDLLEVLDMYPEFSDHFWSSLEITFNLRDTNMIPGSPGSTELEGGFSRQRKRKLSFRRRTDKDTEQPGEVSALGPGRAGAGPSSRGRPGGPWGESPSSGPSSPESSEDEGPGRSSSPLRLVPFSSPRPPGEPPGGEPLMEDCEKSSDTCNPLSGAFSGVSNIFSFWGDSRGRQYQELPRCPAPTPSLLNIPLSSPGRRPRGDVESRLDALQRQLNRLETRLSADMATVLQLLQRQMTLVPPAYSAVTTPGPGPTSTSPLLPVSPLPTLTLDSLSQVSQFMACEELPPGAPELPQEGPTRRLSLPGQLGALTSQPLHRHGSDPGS

Question: Which activity at 0.25 h, 10 µM (CYP2C19) does the source give for `Cc1nc(NC(=O)c2sc3cc(F)ccc3c2Cl)c(C)c(C)c1O` here?
Answer: 98.3%

Question: And the MRT [1]?
Answer: 5.7 h

Question: What about the half-life [2] of the same compound?
Answer: 3.8 h

Question: What about the viability at 5 µM (U-937 [3]) of the same compound?
Answer: 95.2%

Question: What about the viability at 10 µM (HT-29 [4]) of the same compound?
Answer: 98.6%

Question: What about the viability at 5 µM (HT-29 [5]) of the same compound?
Answer: 98.7%

Question: And the viability at 1 µM (U-937 [6])?
Answer: 95.4%

Question: What about the half-life [7] of the same compound?
Answer: 3.3 h

Question: What about the activity at 10 µM (hERG) of the same compound?
Answer: 91.7%

Question: What about the activity at 0.25 h, 10 µM (CYP2D6) of the same compound?
Answer: 86%

Question: What about the MRT [8] of the same compound?
Answer: 5 h

Question: And the Cmax [9]?
Answer: 1880 ng/mL

Question: And the MRT [10]?
Answer: 1.2 h

Question: What about the Activity [11] of the same compound?
Answer: Non-Toxic
